Results as given in paper PMC10233829 (ACS Omega, 2023).
≈ marks a conversion by molar mass, not a printed value.

How the values were obtained:
[1] = test system: S. aureus ATCC 6538 biofilm; assay: Biofilm eradication assay (crystal violet); type: cell-based, Staphylococcus aureus; conditions: 4–2 MIC
Method: (§1) Three bacterial strains E. coli ATCC 25922, P. aeruginosa ATCC 15442, and S. aureus ATCC 6538 were used to assign biofilm eradication properties of compounds 5, 10, 11, and CP as the reference drug. To quantify the biomass of the bacteria biofilm, the crystal violet method was used with some modifications.[52] The bacteria were incubated to the mid-log phase, diluted to 103 cfu/mL in brain–heart infusion medium, and seeded in a 96-well plate. Bacterial biofilms were formed by overnight incubation at 37 °C with rotation at 140 rpm. After biofilm formation, all wells were washed with PBS to remove nonadherent bacteria cells. […] The biofilms with tested substances were incubated for 20 h at 37 °C with shaking at 140 rpm. The bacterial biofilm was stained with 0.1% (v/v) CV for 10 min. Afterward, the biofilm was rinsed with PBS and dried. To solubilize the adsorbed crystal violet, wells with stained biofilms were incubated in 30% acetic acid. To estimate the total biofilm biomass, optical density (OD) of the resulting solution was measured at 595 nm. Biofilm assays were repeated at least three times on different days, with two technical replicates assessed each time. A minimum eradication concentration (MBEC) was determined as the lowest concentration of compound, which could damage ≥50% of the formed biofilm structure.

S. aureus ATCC 6538 [2] = assay: Bacterial growth curve assay (OD600, 18 h); type: cell-based, Staphylococcus aureus; conditions: S. aureus ATCC 6538, 0.1 μg/mL
P. aeruginosa ATCC 15442 [3] = assay: Bacterial growth curve assay (OD600, 18 h); type: cell-based, Pseudomonas aeruginosa; conditions: P. aeruginosa
[4] = test system: IL-6 level in HaCaT cells; assay: Interleukin-6 ELISA; type: cell-based, human; conditions: IC50 concentration, 72 h
Method: (§2) The level of interleukin-6 (IL-6) in PC3 and HaCaT cell lines was measured by commercial human IL-6 ELISA kits Diaclon SAS (Besancon Cedex, France). […] The untreated cells were used as the control. The IL-6 level in a cell culture supernatant was measured using an enzyme-linked immunosorbent assay in accordance with the manufacturer’s instruction. The experiment was repeated three times.

IL-6 level in PC3 cells = assay: Interleukin-6 ELISA; type: cell-based, human; conditions: PC3, IC50 concentration, 72 h
Method: as §2

[5] = test system: E. coli ATCC 25922 biofilm; assay: Biofilm eradication assay (crystal violet); type: cell-based, Escherichia coli; conditions: 4 MIC
Method: as §1

PC3 cells = assay: MTT assay, cytotoxic activity; type: cell-based, human; conditions: MTT, 72 h
Method in brief: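 Cytotoxicity readout: relative MTT level (%), i.e. absorbance of compound-treated PC3 cells divided by that of untreated controls, ×100. Cultures were kept in a humidified 37 °C, 5% CO2 incubator.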

E. coli 951 = assay: MIC, twofold microdilution, clinical strain; type: cell-based; conditions: Escherichia coli, 18 h
M. tuberculosis H37Rv = assay: Tuberculostatic activity, Microplate Alamar Blue Assay (MIC); type: cell-based, Mycobacterium tuberculosis; conditions: Mycobacterium tuberculosis, H37RV; MABA; read-out: MIC M. tuberculosis H37Rv
S. epidermidis 5253 = assay: MIC, twofold microdilution, clinical strain; type: cell-based, Staphylococcus epidermidis; conditions: Staphylococcus epidermidis, 5253, 18 h
[6] = test system: Staphylococci (standard strains); assay: MIC, standard Gram-positive strains as a panel; type: cell-based, S. aureus, S. epidermidis
[7] = test system: S. epidermidis ATCC 35984; assay: MIC, twofold microdilution, standard strain; type: cell-based; conditions: Staphylococcus epidermidis, ATCC35984, 18 h
P. aeruginosa ATCC 15442 [8] = assay: MIC, twofold microdilution, standard strain; type: cell-based, Pseudomonas aeruginosa; conditions: Pseudomonas aeruginosa, ATCC15442; standard strain, 18 h
[9] = target: T1, S. aureus topoisomerase IV (Staphylococcus aureus, UniProt P0C1S7+P0C1U9); assay: Topoisomerase IV decatenation assay; type: biochemical; conditions: decatenation of kinetoplast DNA; read-out: IC50 S. aureus topoisomerase IV (converted)
T1 construct: purchased Inspiralis, Norwich, UK

S. aureus ATCC 25923 = assay: MIC, twofold microdilution, standard strain; type: cell-based; conditions: Staphylococcus aureus, ATCC25923, 18 h
E. coli ATCC 25922 = assay: MIC, twofold microdilution, standard strain; type: cell-based, Escherichia coli; conditions: Escherichia coli, ATCC25922; standard strain, 18 h
E. cloacae 8 = assay: MIC, twofold microdilution, clinical strain; type: cell-based, Escherichia cloacae; conditions: Enterobacter cloacae, 8; clinical strain, 18 h
E. coli 520 = assay: MIC, twofold microdilution, clinical strain; type: cell-based; conditions: Escherichia coli, 18 h
S. aureus DNA gyrase = S. aureus DNA gyrase (Staphylococcus aureus, UniProt P0A0K8+P20831); assay: biochemical; conditions: supercoiling of relaxed pBR322
Method: The enzymatic assay was carried using commercial topoisomerases type II as previously described by Alt et al.[55] with some modifications.
Briefly, 1 U of the enzyme (gyrase or topo IV, Inspiralis. Norwich, UK) isolated from S. aureus converts […] of relaxed pBR322 DNA to the supercoiled form (gyrase) or decatenates 200 ng of kinetoplast DNA (topo IV). […] The reactions were terminated by adding an equal volume of STEB buffer (40% sucrose, 100 mM Tris–HCl pH 8, 10 mM EDTA, and 0.5 mg/mL bromophenol blue), followed by extraction with 1 volume of chloroform/isoamyl alcohol (24:1). The samples were vortexed and centrifuged, and 20 μL of the aqueous phase of each sample was loaded onto a 1% agarose gel and left for 30 min prior to electrophoresis to allow diffusion of salt. […] Gels were stained with ethidium bromide and visualized under UV light in a transilluminator (ChemiDoc MP, Bio Rad).

P. aeruginosa 659 = assay: MIC, twofold microdilution, clinical strain; type: cell-based; conditions: Pseudomonas aeruginosa, 18 h
S. aureus T5595 = assay: MIC, twofold microdilution, clinical strain; type: cell-based, Staphylococcus aureus; conditions: Staphylococcus aureus, T5595, 18 h
[10] = test system: clinical bacterial strains; assay: MIC, clinical isolates as groups of strains; type: cell-based; conditions: S. aureus 180 and 5595
[11] = test system: M. tuberculosis Spec. 192; assay: Tuberculostatic activity, Microplate Alamar Blue Assay (MIC); type: cell-based; conditions: Mycobacterium tuberculosis, MABA, read-out: MIC M. tuberculosis Spec. 192 (sensitive to tuberculostatics)
[12] = test system: P. aeruginosa ATCC 15442 and E. coli ATCC 25922; assay: MIC, standard Gram-negative rods as a panel; type: cell-based; conditions: P. aeruginosa ATCC 15442, E. coli ATCC 25922; read-out: MIC against standard Gram-negative rods (range over strains)
[13] = MTT assay, cytotoxic activity; type: cell-based; conditions: human, HaCaT cells (immortal keratinocytes); MTT, 72 h, normal cell line; read-out: IC50 HaCaT
Method in brief: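 Viability was calculated as A/B × 100%, with A the absorbance of treated samples and B that of untreated controls, from MTT reduction. Cells were cultured in a humidified 37 °C/5% CO2 incubator.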

S. epidermidis KR4243/1 = assay: MIC, twofold microdilution, clinical strain; type: cell-based; conditions: Staphylococcus epidermidis, 18 h
S. aureus T5591 = assay: MIC, twofold microdilution, clinical strain; type: cell-based, Staphylococcus aureus; conditions: Staphylococcus aureus, T5591, 18 h
S. epidermidis 4341 = assay: MIC, twofold microdilution, clinical strain; type: cell-based; conditions: Staphylococcus epidermidis, 18 h
K. pneumoniae 28 = assay: MIC, twofold microdilution, clinical strain; type: cell-based; conditions: Klebsiella pneumoniae, 18 h
P. aeruginosa 37 = assay: MIC, twofold microdilution, clinical strain; type: cell-based; conditions: Pseudomonas aeruginosa, 18 h
E. coli 600 = assay: MIC, twofold microdilution, clinical strain; type: cell-based, Escherichia coli; conditions: Escherichia coli, 600, 18 h
K. pneumoniae 510 = assay: MIC, twofold microdilution, clinical strain; type: cell-based, Klebsiella pneumoniae; conditions: Klebsiella pneumoniae, 510; clinical strain, 18 h
S. aureus 180 = assay: MIC, twofold microdilution, clinical strain; type: cell-based; conditions: Staphylococcus aureus, 18 h
S. aureus ATCC 29213 = assay: MIC, twofold microdilution, standard strain; type: cell-based; conditions: Staphylococcus aureus, ATCC29213, 18 h
S. aureus ATCC 6538 [14] = assay: MIC, twofold microdilution, standard strain; type: cell-based, Staphylococcus aureus; conditions: Staphylococcus aureus, ATCC6538; standard strain, 18 h
S. pasteuri KR 4358 = assay: MIC, twofold microdilution, clinical strain; type: cell-based; conditions: Staphylococcus pasteuri, KR4358, 18 h
S. aureus NCTC 4163 = assay: MIC, twofold microdilution, standard strain; type: cell-based; conditions: Staphylococcus aureus, NCTC4163, 18 h
[15] = test system: S. epidermidis ATCC 12228; assay: MIC, twofold microdilution, standard strain; type: cell-based; conditions: Staphylococcus epidermidis, ATCC12228, 18 h
S. aureus 5595 = assay: MIC, twofold microdilution, clinical strain; type: cell-based; conditions: Staphylococcus aureus, 18 h
M. tuberculosis Spec 210 = assay: microbe, parasite or virus in culture; type: cell-based, Mycobacterium tuberculosis; conditions: M. tuberculosis Spec. 210

T1 sequence (P0C1U9 whole entry): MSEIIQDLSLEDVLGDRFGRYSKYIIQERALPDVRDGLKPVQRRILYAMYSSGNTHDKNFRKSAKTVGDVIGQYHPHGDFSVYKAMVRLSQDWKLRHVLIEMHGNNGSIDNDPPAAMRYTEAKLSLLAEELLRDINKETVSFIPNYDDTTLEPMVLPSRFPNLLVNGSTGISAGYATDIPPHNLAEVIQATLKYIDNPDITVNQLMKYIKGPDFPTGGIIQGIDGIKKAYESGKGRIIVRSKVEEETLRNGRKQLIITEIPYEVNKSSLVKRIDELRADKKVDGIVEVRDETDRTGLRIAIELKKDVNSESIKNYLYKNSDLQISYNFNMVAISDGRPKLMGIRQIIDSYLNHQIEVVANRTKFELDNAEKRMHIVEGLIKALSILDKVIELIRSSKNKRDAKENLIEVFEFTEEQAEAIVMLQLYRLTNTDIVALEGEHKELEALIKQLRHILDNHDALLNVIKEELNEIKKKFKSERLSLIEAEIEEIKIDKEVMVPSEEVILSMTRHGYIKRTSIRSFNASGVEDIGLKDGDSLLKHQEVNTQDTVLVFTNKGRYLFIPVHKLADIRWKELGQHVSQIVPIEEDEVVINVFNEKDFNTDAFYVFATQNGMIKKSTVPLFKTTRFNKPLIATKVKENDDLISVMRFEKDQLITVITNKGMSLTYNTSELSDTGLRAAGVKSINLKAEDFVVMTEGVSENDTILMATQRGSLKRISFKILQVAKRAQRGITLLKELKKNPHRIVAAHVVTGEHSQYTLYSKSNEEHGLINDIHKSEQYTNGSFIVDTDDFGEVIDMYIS
T1 sequence (P0C1S7 whole entry): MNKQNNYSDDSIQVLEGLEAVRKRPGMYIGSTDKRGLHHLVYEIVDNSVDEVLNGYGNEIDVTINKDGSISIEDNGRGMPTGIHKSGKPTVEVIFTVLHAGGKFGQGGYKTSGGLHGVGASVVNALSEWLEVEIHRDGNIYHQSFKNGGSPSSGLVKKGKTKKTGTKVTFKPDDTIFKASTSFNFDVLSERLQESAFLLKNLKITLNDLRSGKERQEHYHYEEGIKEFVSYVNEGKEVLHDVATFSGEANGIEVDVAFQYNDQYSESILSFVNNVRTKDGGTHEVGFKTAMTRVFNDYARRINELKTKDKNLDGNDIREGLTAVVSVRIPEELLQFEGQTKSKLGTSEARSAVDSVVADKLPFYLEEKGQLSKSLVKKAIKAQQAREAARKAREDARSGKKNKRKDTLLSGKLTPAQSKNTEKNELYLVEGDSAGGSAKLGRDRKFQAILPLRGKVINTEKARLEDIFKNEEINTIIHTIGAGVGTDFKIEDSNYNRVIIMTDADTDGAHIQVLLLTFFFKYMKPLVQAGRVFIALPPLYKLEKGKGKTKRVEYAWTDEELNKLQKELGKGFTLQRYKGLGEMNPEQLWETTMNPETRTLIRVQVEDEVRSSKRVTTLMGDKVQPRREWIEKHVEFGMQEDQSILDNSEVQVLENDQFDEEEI
S. aureus DNA gyrase, sequence (P0A0K8 whole entry): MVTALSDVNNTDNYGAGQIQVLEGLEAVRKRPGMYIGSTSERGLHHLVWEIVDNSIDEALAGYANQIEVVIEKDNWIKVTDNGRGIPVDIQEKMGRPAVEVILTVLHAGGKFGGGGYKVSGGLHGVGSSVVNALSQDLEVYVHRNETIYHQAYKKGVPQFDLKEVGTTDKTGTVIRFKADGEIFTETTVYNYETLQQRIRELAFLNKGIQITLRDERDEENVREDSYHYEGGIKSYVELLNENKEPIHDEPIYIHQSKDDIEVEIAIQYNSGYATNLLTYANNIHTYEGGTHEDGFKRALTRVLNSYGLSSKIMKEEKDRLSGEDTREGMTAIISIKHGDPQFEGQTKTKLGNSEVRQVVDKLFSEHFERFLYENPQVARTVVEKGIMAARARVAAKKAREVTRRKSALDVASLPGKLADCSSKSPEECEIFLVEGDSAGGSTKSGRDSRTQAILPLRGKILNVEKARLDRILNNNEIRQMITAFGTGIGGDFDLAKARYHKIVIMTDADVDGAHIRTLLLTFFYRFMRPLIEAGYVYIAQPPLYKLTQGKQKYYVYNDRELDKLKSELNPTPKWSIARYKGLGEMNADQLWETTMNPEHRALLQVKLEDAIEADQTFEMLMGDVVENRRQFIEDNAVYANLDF
S. aureus DNA gyrase, sequence (P20831 whole entry): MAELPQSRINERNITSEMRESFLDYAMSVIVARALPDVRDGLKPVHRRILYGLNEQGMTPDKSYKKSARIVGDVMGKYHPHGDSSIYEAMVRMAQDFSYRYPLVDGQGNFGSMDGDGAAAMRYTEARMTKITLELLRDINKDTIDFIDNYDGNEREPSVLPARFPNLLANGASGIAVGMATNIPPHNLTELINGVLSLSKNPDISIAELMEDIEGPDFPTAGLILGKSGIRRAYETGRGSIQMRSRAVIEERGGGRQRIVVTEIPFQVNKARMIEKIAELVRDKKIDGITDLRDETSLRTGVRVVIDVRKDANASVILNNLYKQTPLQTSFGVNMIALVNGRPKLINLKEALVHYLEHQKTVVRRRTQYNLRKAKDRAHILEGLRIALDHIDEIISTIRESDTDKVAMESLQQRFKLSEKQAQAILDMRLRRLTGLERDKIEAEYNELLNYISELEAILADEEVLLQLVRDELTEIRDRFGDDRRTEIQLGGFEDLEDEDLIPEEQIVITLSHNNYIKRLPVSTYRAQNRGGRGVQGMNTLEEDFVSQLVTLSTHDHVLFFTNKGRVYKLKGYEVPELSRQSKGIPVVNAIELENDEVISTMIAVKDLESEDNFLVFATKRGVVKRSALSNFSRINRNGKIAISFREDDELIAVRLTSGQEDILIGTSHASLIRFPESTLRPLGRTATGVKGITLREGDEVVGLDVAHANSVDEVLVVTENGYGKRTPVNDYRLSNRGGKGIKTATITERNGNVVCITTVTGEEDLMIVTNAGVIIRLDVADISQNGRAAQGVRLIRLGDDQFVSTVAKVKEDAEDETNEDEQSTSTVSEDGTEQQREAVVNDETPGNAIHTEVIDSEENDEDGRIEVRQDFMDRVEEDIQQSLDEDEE

Compound	IC50 (PC3 cells; Homo sapiens, PC-3, 72 h)	MIC (E. coli 951)	MIC (M. tuberculosis H37Rv)	MIC (S. epidermidis 5253)	MIC [7]	MIC (P. aeruginosa ATCC 15442 [8])	MIC (S. aureus ATCC 25923)	MIC (E. coli ATCC 25922)	MIC (E. cloacae 8)	MIC (E. coli 520)	MIC (P. aeruginosa 659)	MIC (S. aureus T5595)	share of CP inhibitory activity [10]	MIC [11]	MIC [12]	IC50 at 72 h [13]	MIC (S. epidermidis KR4243/1)	MIC (S. aureus T5591)	MIC (S. epidermidis 4341)	MIC (K. pneumoniae 28)	other results
O=C(O)c1cn(C2CC2)c2cc(N3CCNCC3)c(F)cc2c1=O [CP, ciprofloxacin, reference compound]	> 100 µM	–	–	–	–	–	–	–	–	–	–	–	–	–	–	–	–	–	–	–	elimination of the mature biofilm of S. aureus ATCC 6538 [1]: 19–25%; bacterial growth limited up to (S. aureus ATCC 6538 [2]): up to 12 h; lag phase elongated up to (P. aeruginosa ATCC 15442 [3]; 0.05 μg/mL): up to 14 h; elongation of the exponential phase to (P. aeruginosa ATCC 15442 [3]; 0.03–0.006 μg/mL): 9 h; effect on IL-6 in human keratinocytes [4]: stimulated human keratinocytes to produce IL-6; decrease of IL-6 release as compared to the control (IL-6 level in PC3 cells): 2.4 times; eradication of the biofilm formed by E. coli [5]: approx. 20%; IC50 (PC3 cells): 100 ± 3.6 µM
C=CC(=O)N1CCN(c2cc3c(cc2F)c(=O)c(C(=O)O)cn3C2CC2)CC1 [Compound 1, 7-(4-Acryloyl-piperazin-1-yl)-1-cyclopropyl-6-fluoro-4-oxo-1,4-dihydro-quinoline-3-carboxylic Acid]	68.7 ± 3.4 µM	> 25.6 µg/mL	4 µg/mL (≈ 10.4 µM)	> 25.6 µg/mL	0.05 µg/mL (≈ 0.13 µM)	3.2 µg/mL (≈ 8.3 µM)	0.05 µg/mL (≈ 0.13 µM)	0.1 µg/mL (≈ 0.259 µM)	3.2 µg/mL (≈ 8.3 µM)	1.6 µg/mL (≈ 4.15 µM)	> 25.6 µg/mL	0.4 µg/mL (≈ 1.04 µM)	62.5%	4 µg/mL (≈ 10.4 µM)	≤ 1 µg/mL	100 ± 1.2 µM	0.4 µg/mL (≈ 1.04 µM)	0.8 µg/mL (≈ 2.08 µM)	> 25.6 µg/mL	> 25.6 µg/mL	times higher potency than CP ([6]; S. aureus NCTC 4163 and ATCC 25923): 5–10 times; MIC ([6]; read-out: MIC toward standard Staphylococci (range over strains)): 0.05 to 0.4 µg/mL (≈ 0.13 to 1.04 µM); fold more active than CP toward standard Staphylococci ([6]; standard Gram-positive strains of Table 1): 1.25–10 fold; IC50 [9]: 25.9 µM; IC50 (S. aureus DNA gyrase): 23.9 µM; MIC (P. aeruginosa 37): > 25.6 µg/mL; MIC (E. coli 600): > 25.6 µg/mL; MIC (K. pneumoniae 510): > 25.6 µg/mL; MIC (S. aureus 180): 0.8 µg/mL (≈ 2.08 µM); MIC (S. aureus ATCC 29213): 0.1 µg/mL (≈ 0.259 µM); MIC (S. aureus ATCC 6538 [14]): 0.05 µg/mL (≈ 0.13 µM); MIC (S. pasteuri KR 4358): 0.4 µg/mL (≈ 1.04 µM); MIC (S. aureus NCTC 4163): 0.05 µg/mL (≈ 0.13 µM); MIC [15]: 0.1 µg/mL (≈ 0.259 µM); MIC (S. aureus 5595): 0.8 µg/mL (≈ 2.08 µM); fold more effective than the reference tuberculostatics (M. tuberculosis Spec 210): 8–32 fold
O=C(O)c1cn(C2CC2)c2cc(N3CCN(CCCCC(=O)N4CCN(c5cc6c(cc5F)c(=O)c(C(=O)O)cn6C5CC5)CC4)CC3)c(F)cc2c1=O [Compound 19, CP–Pentanoyl–CP Dimer]	71.4 ± 3.2 µM	25.6 µg/mL (≈ 34.4 µM)	8 µg/mL (≈ 10.7 µM)	> 25.6 µg/mL	0.8 µg/mL (≈ 1.07 µM)	3.2 µg/mL (≈ 4.3 µM)	0.8 µg/mL (≈ 1.07 µM)	0.4 µg/mL (≈ 0.537 µM)	3.2 µg/mL (≈ 4.3 µM)	3.2 µg/mL (≈ 4.3 µM)	25.6 µg/mL (≈ 34.4 µM)	1.6 µg/mL (≈ 2.15 µM)	62.5%	8 µg/mL (≈ 10.7 µM)	≤ 1 µg/mL	72.9 ± 5.7 µM	1.6 µg/mL (≈ 2.15 µM)	0.8 µg/mL (≈ 1.07 µM)	> 25.6 µg/mL	> 25.6 µg/mL	melting point: 170.3 to 171.9 °C; MIC (P. aeruginosa 37): > 25.6 µg/mL; MIC (E. coli 600): 3.2 µg/mL (≈ 4.3 µM); MIC (K. pneumoniae 510): > 25.6 µg/mL; MIC (S. aureus 180): 1.6 µg/mL (≈ 2.15 µM); MIC (S. aureus ATCC 29213): 0.8 µg/mL (≈ 1.07 µM); MIC (S. aureus ATCC 6538 [14]): 0.4 µg/mL (≈ 0.537 µM); MIC (S. pasteuri KR 4358): 1.6 µg/mL (≈ 2.15 µM); MIC (S. aureus NCTC 4163): 0.4 µg/mL (≈ 0.537 µM); MIC [15]: 0.8 µg/mL (≈ 1.07 µM); MIC (S. aureus 5595): 0.8 µg/mL (≈ 1.07 µM); fold more effective than the reference tuberculostatics (M. tuberculosis Spec 210): 8–32 fold
